# Columns and labels:
# [1] = tested on: acute hyperuricemic mice (急性高尿酸血症小鼠); assay: 实验例3: effect of TAZ-3-19 on lowering blood uric acid in acute hyperuricemia model mice (hypoxanthine plus potassium oxonate); type: in vivo; settings: acute hyperuricemia ICR mice, intragastric, n=10, compared with model control
# [2] = tested on: hyperuricemic mice (高尿酸血症小鼠); assay: 实验例2: effect of TAZ-3-16 on lowering blood uric acid in hyperuricemic (HUA) model mice (hypoxanthine plus potassium oxonate, repeated stimulation); type: in vivo; settings: HUA model ICR mice, intragastric, n=10, compared with model control
compound,measurement,setting,value
CN1CCN(CCCOc2c(Cl)cc(-c3nc(-c4ccncc4)n[nH]3)cc2Cl)CC1 [TAZ-3-19],decrease of peak blood uric acid,[1]; 0.625 mg/kg,5.7%
same,decrease of peak blood uric acid,[1]; 1.25 mg/kg,34.2%
same,decrease of peak blood uric acid,[1]; 2.5 mg/kg,68.0%
"Cc1nc(-c2ccc(OCC(C)C)c(C#N)c2)sc1C(=O)O [非布索坦, reference compound]",blood uric acid level,[2]; 1 mg/kg once daily for 2 days,明显降低
Clc1cc(-c2nc(-c3ccncc3)n[nH]2)cc(Cl)c1OCCCN1CCCCC1 [TAZ-3-16],blood uric acid level,[2]; 0.5 mg/kg once daily for 2 days,明显降低

# From patent CN113354616A, “二芳基-1,2,4-三唑类化合物及其制法和药物用途” (Institute of Materia Medica of CAMS and PUMC, priority 2020, dated 2021)
